Laboratory results as given in US9086425B2, “Carbamylated proteins and risk of cardiovascular disease” (The Cleveland Clinic Foundation, priority 2007, dated 2015).

Assays:
scavenger receptor SR-A1 = biological target: T1, scavenger receptor SR-A1 (Mus musculus, UniProt P30204); assay: Carbamylated LDL binding studies with SR-A1 transfected cells / SR-A1 inhibitor; type: cell-based, murine; conditions: data not shown
T1 construct: expressed in transfected cells; host or cells: CHO cells, stably transfected
T1 sequence (P30204 1-458): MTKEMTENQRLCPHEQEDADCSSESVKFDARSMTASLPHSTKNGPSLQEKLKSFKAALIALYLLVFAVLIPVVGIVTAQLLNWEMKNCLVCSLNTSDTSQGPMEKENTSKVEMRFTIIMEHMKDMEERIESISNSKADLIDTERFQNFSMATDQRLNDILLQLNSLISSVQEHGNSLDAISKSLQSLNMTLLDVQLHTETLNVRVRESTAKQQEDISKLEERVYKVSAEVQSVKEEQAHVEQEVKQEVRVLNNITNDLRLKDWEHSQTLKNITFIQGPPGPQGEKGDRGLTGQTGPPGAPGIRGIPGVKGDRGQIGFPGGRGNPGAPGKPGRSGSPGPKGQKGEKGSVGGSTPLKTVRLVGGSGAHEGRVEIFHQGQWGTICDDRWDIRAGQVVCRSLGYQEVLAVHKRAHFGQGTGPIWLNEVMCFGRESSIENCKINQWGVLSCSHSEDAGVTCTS

[1] = system: aortic smooth muscle cells (both human and bovine); assay: Aortic smooth muscle cell proliferation; type: cell-based; conditions: SR-A1 inhibitor present in culture media
Excerpt: 1,1′-dioctadecyl-3,3,3′,3′-tetramethylyindocarbocyanine perchlorate (DiI) was obtained from Molecular Probes (Eugene, Oreg.). Organic solvents were obtained from Fisher Scientific Co. (Pittsburgh, Pa.). Caspase-3/7 assay kit (Lot #220150) was purchased from Promega (Madison, Wis.) and cell proliferation ELISA, BrdU (colorimetric) kit (Lot #11647229001) was from Roche (Indianapolis, Ind.). All other reagents and materials were obtained from Sigma Chemical Co. (St. Louis, Mo.) unless otherwise indicated. Protein content was determined by the Markwell-modified Lowry protein assay^44. Human LDL and HDL were isolated from whole blood of healthy volunteers by established methods^45. Human myeloperoxidase (MPO) (donor: hydrogen peroxide, oxidoreductase, EC 1.11.1.7), NO2-LDL and AcLDL were prepared as described in Podrez et al^14.
In a separate series of studies, we therefore examined the impact of MPO-catalyzed lipoprotein carbamylation on these processes.

homocitrulline levels = assay: Effect of simvastatin on plasma levels of homocitrulline (randomized placebo-controlled study); type: in vivo, human; conditions: 6 weeks of treatment
Method: This study was intended to evaluate the effect of statin therapy on homocitrulline levels. Specimens came from archival materials from a randomized, double-blind, parallel-group, 4-arm, placebo-controlled, multi-center study conducted in 1997. Prior to randomization, subjects underwent a 4-week diet/placebo run-in period. Eligible patients were then randomized to 1 of 4 treatments (ratio 1:1:1:1): placebo, simvastatin 20, 40, or 80 mg, and received 6 weeks of treatment. One hundred and eighty eight out of 195 enrolled men and women completed the study. Subjects were required to have elevated TG (300 to 900 mg/dL), and many had comorbidities associated with the metabolic syndrome; however, though those with morbid obesity, uncontrolled hypertension, or severe hyperlipidemia were excluded. Archived serum and/or plasma that were drawn predose on Day 1 and on Day 42 were used in this analysis.

For fucoidin, the “inhibition of specific binding of carbamylated LDL” value (scavenger receptor SR-A1) was “over 80%” and the “effect on proliferation induced by carbamylated LDL” value [1] was “markedly suppressed”.

With CCC(C)(C)C(=O)O[C@H]1C[C@@H](C)C=C2C=C[C@H](C)[C@H](CC[C@@H]3C[C@@H](O)CC(=O)O3)[C@H]21 [Simvastatin, simvastatin] the “Median % Change (SD) of homocitrulline” value (homocitrulline levels; simvastatin 20 mg, Day 42 vs predose Day 1, archived serum and/or plasma) was −100.0 (102.67) %, the “Median % Change (SD) of homocitrulline” value (homocitrulline levels; simvastatin 40 mg, Day 42 vs predose Day 1, archived serum and/or plasma) was −100.0 (67.77) % and the “Median % Change (SD) of homocitrulline” value (homocitrulline levels; simvastatin 80 mg, Day 42 vs predose Day 1, archived serum and/or plasma) was −63.44 (89.63) %. For the same compound, the “Median % Change (SD) of homocitrulline” value (homocitrulline levels; simvastatin combined (20, 40, 80 mg), Day 42 vs predose Day 1) was −100.0 (84.03) %.
